Results on nine molecules are retold here after patent publication US8877778B2, “Benzofurane compounds” (Hoffmann-La Roche Inc., priority 2010, dated 2014).

One data set addresses human D2 receptor (Homo sapiens (Human), UniProt P14416). Nature of the data set: Radioligand binding ([3H]-spiperone) to cloned receptors expressed in HEK-293 EBNA cells. The settings on record: HEK293 EBNA cell membranes expressing human D2. In a few lines:
(§1)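 Membranes from transiently transfected HEK293 EBNA cells incubated 1 h at RT with ten compound concentrations (10 μM–0.1 nM). D2/D3: [3H]-spiperone ~0.7/0.5 nM, Tris–NaCl–Mg/Ca buffer pH 7.4; 5-HT2A: [3H]-ketanserin 1.1 nM, Tris–MgCl2–EGTA pH 7.4.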

The target of another data set is human D3 receptor (Homo sapiens (Human), UniProt P35462). The data set is described as above. The settings on record: HEK293 EBNA cell membranes expressing human D3. The method, boiled down: as §1
human D3 receptor, sequence (P35462 whole entry): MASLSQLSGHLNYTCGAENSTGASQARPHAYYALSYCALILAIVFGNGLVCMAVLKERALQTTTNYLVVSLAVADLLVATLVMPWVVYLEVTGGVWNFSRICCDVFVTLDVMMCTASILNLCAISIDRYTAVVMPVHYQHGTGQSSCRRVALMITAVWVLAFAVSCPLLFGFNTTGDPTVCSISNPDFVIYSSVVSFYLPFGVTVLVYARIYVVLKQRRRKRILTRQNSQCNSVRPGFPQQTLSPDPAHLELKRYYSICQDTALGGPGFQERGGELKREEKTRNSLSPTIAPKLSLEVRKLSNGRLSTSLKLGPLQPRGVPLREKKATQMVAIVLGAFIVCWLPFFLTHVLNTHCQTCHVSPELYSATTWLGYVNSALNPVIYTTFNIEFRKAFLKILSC
The next data set deals with human 5-HT2A receptor (Homo sapiens (Human), UniProt P28223). The experiment in a line: Radioligand binding ([3H]-ketanserin) to cloned receptors expressed in HEK-293 EBNA cells. The settings on record: HEK293 EBNA cell membranes expressing human 5-HT2A. The method, boiled down:
as §1

Each structure is given as a SMILES string.

human 5-HT2A receptor, sequence (P28223 whole entry): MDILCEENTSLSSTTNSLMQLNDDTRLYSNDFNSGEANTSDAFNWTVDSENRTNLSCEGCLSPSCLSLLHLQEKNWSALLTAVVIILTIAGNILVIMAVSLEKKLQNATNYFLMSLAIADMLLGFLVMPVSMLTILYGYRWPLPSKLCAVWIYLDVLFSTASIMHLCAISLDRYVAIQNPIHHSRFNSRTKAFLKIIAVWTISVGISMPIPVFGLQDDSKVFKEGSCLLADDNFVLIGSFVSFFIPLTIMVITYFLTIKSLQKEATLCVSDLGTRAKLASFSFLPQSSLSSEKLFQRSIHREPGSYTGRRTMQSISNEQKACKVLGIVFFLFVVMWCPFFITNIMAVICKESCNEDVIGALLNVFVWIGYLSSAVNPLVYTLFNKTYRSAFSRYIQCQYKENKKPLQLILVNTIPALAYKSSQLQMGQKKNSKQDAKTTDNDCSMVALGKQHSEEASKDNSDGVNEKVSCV
human D2 receptor, sequence (P14416 whole entry): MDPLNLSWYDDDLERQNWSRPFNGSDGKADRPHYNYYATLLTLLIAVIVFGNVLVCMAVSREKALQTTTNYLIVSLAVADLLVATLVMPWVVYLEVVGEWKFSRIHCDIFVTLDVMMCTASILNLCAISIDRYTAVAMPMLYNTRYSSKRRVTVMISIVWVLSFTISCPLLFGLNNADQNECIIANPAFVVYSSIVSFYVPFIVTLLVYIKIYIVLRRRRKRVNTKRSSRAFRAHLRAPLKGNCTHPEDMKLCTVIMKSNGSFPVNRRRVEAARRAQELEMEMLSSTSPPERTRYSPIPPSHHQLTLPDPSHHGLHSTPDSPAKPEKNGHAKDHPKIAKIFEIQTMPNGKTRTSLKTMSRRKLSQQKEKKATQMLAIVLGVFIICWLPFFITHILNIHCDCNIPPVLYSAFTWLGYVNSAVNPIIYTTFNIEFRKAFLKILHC

Consider `O=C(CC(F)(F)F)N[C@H]1CC[C@H](CCN2CCC(c3cccc4c3CCO4)CC2)CC1` [Example 18, trans-N-(4-{2-[4-(2,3-Dihydro-benzofuran-4-yl)-piperidin-1-yl]ethyl}-cyclohexyl)-3,3,3-trifluoro-propionamide], for which the melting point stood at 197 °C. Besides, the Ki at human D2 receptor came to 0.345 µM. In addition, on human D3 receptor, the Ki was determined as 0.0044 µM. Further, the Ki at human 5-HT2A receptor came out at 0.0342 µM.

Turning to `Cc1cc(CC(=O)N[C@H]2CC[C@H](CCN3CCC(c4cccc5c4CCO5)CC3)CC2)on1` [Example 19, trans-N-(4-{2-[4-(2,3-Dihydro-benzofuran-4-yl)-piperidin-1-yl]-ethyl}-cyclohexyl)-2-(3-methyl-isoxazol-5-yl)-acetamide], the melting point was found to be 188 °C. Further, the Ki on human D2 receptor came to 0.54 µM. At human D3 receptor, the Ki was determined as 0.002 µM. Also, the Ki on human 5-HT2A receptor was 0.0329 µM.

Take `O=C(CO)N[C@H]1CC[C@H](CCN2CCC(c3cccc4c3CCO4)CC2)CC1` [Example 20, trans-N-(4-{2-[4-(2,3-Dihydro-benzofuran-4-yl)-piperidin-1-yl]-ethyl}-cyclohexyl)-2-hydroxy-acetamide]: the melting point stood at 154.5 °C. For the same molecule, on human D2 receptor, the Ki was 0.571 µM. On human D3 receptor, the Ki turned out to be 0.01 µM. For the same molecule, the Ki on human 5-HT2A receptor was determined as 0.0253 µM.

As for `CC(C)C(=O)N[C@H]1CC[C@H](CCN2CCC(c3cccc4c3CCO4)CC2)CC1` [Example 23, trans-N-(4-{2-[4-(2,3-Dihydro-benzofuran-4-yl)-piperidin-1-yl]-ethyl}-cyclohexyl)-isobutyramide], the melting point was 212 °C. Moreover, the Ki on human D2 receptor worked out at 0.285 µM. Further, the Ki at human D3 receptor is 0.008 µM. Further, at human 5-HT2A receptor, the Ki amounted to 0.0199 µM.

For `CC(C)CC(=O)N[C@H]1CC[C@H](CCN2CCC(c3cccc4c3CCO4)CC2)CC1` [Example 24, trans-N-(4-{2-[4-(2,3-Dihydro-benzofuran-4-yl)-piperidin-1-yl]-ethyl}-cyclohexyl)-3-methyl-butyramide], the melting point was determined as 197 °C. In addition, the Ki at human D2 receptor is 0.213 µM. Besides, the Ki at human D3 receptor was 0.0052 µM. The inhibition constant (Ki) on human 5-HT2A receptor is 0.0311 µM.

As to `O=C(N[C@H]1CC[C@H](CCN2CCC(c3cccc4c3CCO4)CC2)CC1)C1CCC1` [Example 26, Cyclobutanecarboxylic acid trans-(4-{2-[4-(2,3-dihydro-benzofuran-4-yl)-piperidin-1-yl]-ethyl}-cyclohexyl)-amide], the melting point is 197 °C. Moreover, the Ki on human D2 receptor was 0.145 µM. In addition, on human D3 receptor, the Ki came out at 0.0084 µM. Also, at human 5-HT2A receptor, the Ki amounted to 0.0204 µM.

For `O=C(CCO)N[C@H]1CC[C@H](CCN2CCC(c3cccc4c3CCO4)CC2)CC1` [Example 27, trans-N-(4-{2-[4-(2,3-Dihydro-benzofuran-4-yl)-piperidin-1-yl]-ethyl}-cyclohexyl)-3-hydroxy-propionamide], the melting point was 158 °C. At human D2 receptor, the Ki was determined as 0.344 µM. The Ki at human D3 receptor turned out to be 0.0065 µM. At human 5-HT2A receptor, the Ki is 0.0618 µM.

Turning to `O=C(N[C@H]1CC[C@H](CCN2CCC(c3cccc4c3CCO4)CC2)CC1)C1(O)CC1` [Example 28, 1-Hydroxy-cyclopropanecarboxylic acid trans-(4-{2-[4-(2,3-dihydro-benzofuran-4-yl)-piperidin-1-yl]-ethyl}-cyclohexyl)-amide], the melting point was 164 °C. Also, at human D2 receptor, the Ki was determined as 0.299 µM. Moreover, the Ki at human D3 receptor was 0.0084 µM. The Ki at human 5-HT2A receptor was 0.0093 µM.

As for `O=C(N[C@H]1CC[C@H](CCN2CCC(c3cccc4c3CCO4)CC2)CC1)C1CC1` [Example 29, Cyclopropanecarboxylic acid trans-(4-{2-[4-(2,3-dihydro-benzofuran-4-yl)-piperidin-1-yl]-ethyl}-cyclohexyl)-amide], the melting point came to 208 °C. Moreover, the Ki at human D2 receptor was determined as 0.151 µM. Further, the Ki on human D3 receptor stood at 0.0089 µM. The Ki on human 5-HT2A receptor came out at 0.0236 µM.
